According to ChEMBL document CHEMBL1240359, “Micafungin concentrations from brain tissue and pancreatic pseudocyst fluid” (Antimicrob Agents Chemother, 2010):
Calls of active or inactive are those of the source. The rule behind the calls is not given here. Starred links: 1 amine or outer side, 2 acyl side, 3 side chain; linkers in the order of their positions; H or OH if unused. Positions of bridges follow the written chain, without caps; N, C: chain ends. Non-standard residues stand in square brackets, D forms with d. Residues, ends and D or L forms follow the SMILES beside them. *: point of attachment. hTyr(3S-OH,4S-OH,3'-OSO3H) = N[C@H](C(=O)O)[C@H](O)[C@@H](O)c1ccc(O)c(OS(=O)(=O)O)c1; Orn(4R-OH,5R-OH) = O=C([C@H](C[C@@H](O)[C@@H](O)N[*:3])N[*:1])[*:2]; Pro(3S-OH,4S-Me) = C[C@H]1CN[C@H](C(=O)O)[C@H]1O; X1 = CCCCCOc1ccc(-c2cc(-c3ccc(C(=O)*)cc3)no2)cc1; Gln(3R-OH) = NC(=O)C[C@@H](O)[C@H](N)C(=O)O; Hyp = O=C(O)[C@@H]1C[C@@H](O)CN1

Experiments:
[1] = Drug level in rabbit brain at 1 mg/kg/day, iv for 8 days measured 30 mins after last dose; type: ADME, organism-based, Oryctolagus cuniculus; parameters: route intravenous; settings: read-out: Drug uptake
[2] = Drug level in rabbit kidney at 0.5 to 2 mg/kg/day, iv for 8 days measured 30 mins after last dose; type: ADME, organism-based, Oryctolagus cuniculus; parameters: route intravenous; settings: read-out: Drug uptake
[3] = Drug level in pancreatic pseudocyst fluid of patient with invasive candidiasis measured 24 hrs post last dose by HPLC; type: ADME; settings: human, read-out: Drug uptake
[4] = Drug level in brain of patient with invasive candidiasis measured 23 hrs post last dose by HPLC; type: ADME, tissue-based; settings: human, read-out: Drug uptake
[5] = Drug level in rabbit lung at 0.5 to 2 mg/kg/day, iv for 8 days measured 30 mins after last dose; type: ADME, organism-based, Oryctolagus cuniculus; parameters: route intravenous; settings: read-out: Drug uptake
[6] = Drug level in rabbit brain at 2 mg/kg/day, iv for 8 days measured 30 mins after last dose; type: ADME, organism-based, Oryctolagus cuniculus; parameters: route intravenous; settings: read-out: Drug uptake
[7] = Plasma concentration in patient with invasive candidiasis measured 23 hrs post last dose by HPLC; type: ADME, organism-based; settings: human
[8] = Drug level in rabbit brain at 0.5 mg/kg/day, iv for 8 days measured 30 mins after last dose; type: ADME, organism-based, Oryctolagus cuniculus; parameters: route intravenous; settings: read-out: Drug uptake
Candida albicans = assay: Antimicrobial activity against Candida albicans infected in neutropenic rabbit model of disseminated candidiasis assessed as reduction in brain microbial burden at 0.25 to 2 mg/kg/day for 10 days; type: functional, organism-based

Compound: CCCCCOc1ccc(-c2cc(-c3ccc(C(=O)N[C@H]4C[C@@H](O)[C@@H](O)NC(=O)[C@@H]5[C@@H](O)[C@@H](C)CN5C(=O)[C@H]([C@H](O)CC(N)=O)NC(=O)[C@H]([C@H](O)[C@@H](O)c5ccc(O)c(OS(=O)(=O)O)c5)NC(=O)[C@@H]5C[C@@H](O)CN5C(=O)[C@H]([C@@H](C)O)NC4=O)cc3)no2)cc1 [MICAFUNGIN] (X1-[Orn(4R-OH,5R-OH)]T[Hyp][hTyr(3S-OH,4S-OH,3'-OSO3H)][Gln(3R-OH)][Pro(3S-OH,4S-Me)]; lactam 1-C)
- concentration at 0.5 h [1]: 100 ng/g
- concentration at 0.5 h [2]: 1400 ng/g
- concentration at 24 h [3]: 380 ng/mL
- concentration at 23 h [4]: 280 ng/mL
- concentration at 0.5 h [5]: 2260 ng/g
- concentration at 0.5 h [6]: 180 ng/g
- concentration at 23 h [7]: 1580 ng/mL
- concentration at 0.5 h [8]: 80 ng/g
- inhibition (Candida albicans): Active
